Experimental data reported in paper doi:10.1101/801928v2 (biorxiv, 2019).

Target: T1, HmtS (Streptomyces himastatinicus, UniProt G0LWB2)
T1 sequence (G0LWB2 2-397): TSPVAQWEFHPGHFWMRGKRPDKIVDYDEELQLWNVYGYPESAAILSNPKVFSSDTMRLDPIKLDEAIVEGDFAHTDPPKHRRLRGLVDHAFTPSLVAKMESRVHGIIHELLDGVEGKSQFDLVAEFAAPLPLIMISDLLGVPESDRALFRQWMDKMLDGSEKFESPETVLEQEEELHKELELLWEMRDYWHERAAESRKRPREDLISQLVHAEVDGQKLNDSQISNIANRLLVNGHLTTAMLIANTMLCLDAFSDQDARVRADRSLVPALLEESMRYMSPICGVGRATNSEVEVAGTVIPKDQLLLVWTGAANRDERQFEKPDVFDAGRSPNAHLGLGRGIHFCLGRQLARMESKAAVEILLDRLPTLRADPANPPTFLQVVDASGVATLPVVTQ
Test: microscale thermophoresis, NT647-labelled enzyme
Type: binding

Structure (SMILES)	Kd [µM]
Cc1cc2nc3c(=O)[nH]c(=O)nc-3n(C[C@H](O)[C@H](O)[C@H](O)COP(=O)(O)O)c2cc1C [FMN]	40
NC(=O)C1=CN([C@@H]2O[C@H](COP(=O)(O)OP(=O)(O)OC[C@H]3O[C@@H](n4cnc5c(N)ncnc54)[C@H](OP(=O)(O)O)[C@@H]3O)[C@@H](O)[C@H]2O)C=CC1 [NADPH]	83
Cc1cc2nc3c(=O)[nH]c(=O)nc-3n(C[C@H](O)[C@H](O)[C@H](O)COP(=O)(O)OP(=O)(O)OC[C@H]3O[C@@H](n4cnc5c(N)ncnc54)[C@H](O)[C@@H]3O)c2cc1C [FAD]	43
Cc1cc2nc3c(=O)[nH]c(=O)nc-3n(C[C@H](O)[C@H](O)[C@H](O)CO)c2cc1C [riboflavin]	1.9
